# Test results published in BindingDB's records for aid1799744 (Csar, 2012).
# Target: Mitogen-activated protein kinase 1 (Homo sapiens, UniProt P28482)
# Test: Assay 1
# Mitogen-activated protein kinase 1, sequence (P28482 whole entry): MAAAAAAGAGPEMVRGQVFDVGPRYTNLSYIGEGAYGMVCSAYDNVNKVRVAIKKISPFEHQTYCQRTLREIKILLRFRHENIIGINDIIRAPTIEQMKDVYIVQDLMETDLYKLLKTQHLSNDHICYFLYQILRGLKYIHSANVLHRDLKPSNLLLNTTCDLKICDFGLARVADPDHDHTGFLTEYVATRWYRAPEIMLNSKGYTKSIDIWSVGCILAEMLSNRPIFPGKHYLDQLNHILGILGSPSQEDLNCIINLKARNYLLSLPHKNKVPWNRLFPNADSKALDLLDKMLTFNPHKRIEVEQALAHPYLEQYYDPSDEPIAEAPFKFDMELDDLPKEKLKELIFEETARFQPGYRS
row,SMILES,Ki [µM]
1,Nc1ncc(-c2cc(Cl)cc(Cl)c2)c(-c2c[nH]c(C(=O)N[C@H](CO)c3ccccc3)c2)n1 [erk000031],0.229
2,CNc1ncc(C)c(-c2c[nH]c(C(=O)NCc3cccc4ccccc34)c2)n1 [erk000036],0.058
3,Cc1cnc(N)nc1-c1c[nH]c(C(=O)NCc2cccc3ccccc23)c1 [erk000037],0.603
4,CCNc1ncc(C)c(-c2c[nH]c(C(=O)NCc3ccc(F)c(F)c3)c2)n1 [erk000038],0.24
5,CCNc1ncc(C)c(-c2c[nH]c(C(=O)NCc3ccccc3C(F)(F)F)c2)n1 [erk000039],4.57
6,Cc1cnc(Nc2ccccc2)nc1-c1c[nH]c(C(=O)N[C@H](CO)c2ccccc2)c1 [erk000040],0.004
7,CCNc1ncc(C)c(-c2c[nH]c(C(=O)N[C@H](CO)c3ccccc3)c2)n1 [erk000041],0.003
8,CNc1ncc(C)c(-c2c[nH]c(C(=O)NCc3cccc(C(F)(F)F)c3)c2)n1 [erk000042],0.468
9,Cc1cnc(N)nc1-c1c[nH]c(C(=O)NCc2cccc(C(F)(F)F)c2)c1 [erk000043],0.562
10,CNc1ncc(C)c(-c2c[nH]c(C(=O)NCc3ccccc3)c2)n1 [erk000045],0.776
11,CNc1ncc(C)c(-c2c[nH]c(C(=O)N[C@H](CO)c3ccccc3)c2)n1 [erk000046],0.059
12,CCNc1ncc(C)c(-c2c[nH]c(C(=O)NCc3ccccc3)c2)n1 [erk000047],0.089
13,CCNc1ncc(C)c(-c2c[nH]c(C(=O)N[C@@H](CO)c3ccccc3)c2)n1 [erk000048],12.9
14,O=C(NCc1ccc2c(c1)OCO2)c1cc(-c2ccnc(Nc3ccccc3)n2)c[nH]1 [erk000049],0.269
15,CNc1ncc(C)c(-c2c[nH]c(C(=O)NCc3ccc(Cl)cc3Cl)c2)n1 [erk000054],2
16,Cc1cnc(N)nc1-c1c[nH]c(C(=O)NCc2ccc(Cl)cc2Cl)c1 [erk000055],6.76
17,CNc1ncc(C)c(-c2c[nH]c(C(=O)NCc3ccc(F)c(F)c3)c2)n1 [erk000056],3.72
18,O=C(c1cc(-c2ccnc(Nc3ccccc3)n2)c[nH]1)N1CCc2ccccc2C1 [erk000057],0.525
19,CCNc1ncc(C)c(-c2c[nH]c(C(=O)N3CCc4ccccc4C3)c2)n1 [erk000058],1.59
20,CN(Cc1ccccc1)C(=O)c1cc(-c2ccnc(Nc3ccccc3)n2)c[nH]1 [erk000059],0.302
21,CCNc1ncc(CC)c(-c2c[nH]c(C(=O)N[C@H](CO)c3ccccc3)c2)n1 [erk000060],0.12

row,SMILES,Ki [µM]
1,CCNc1ncc(C)c(-c2c[nH]c(C(=O)NCc3cccc(C(F)(F)F)c3)c2)n1 [erk000062],0.141
2,CCc1cnc(N)nc1-c1c[nH]c(C(=O)N[C@H](CO)c2ccccc2)c1 [erk000065],0.288
3,Cc1cnc(N)nc1-c1c[nH]c(C(=O)NCc2ccc3c(c2)OCO3)c1 [erk000066],0.141
4,Nc1nccc(-c2c[nH]c(C(=O)N[C@H](CO)c3ccccc3)c2)n1 [erk000067],0.324
5,CCNc1nccc(-c2c[nH]c(C(=O)N[C@H](CO)c3ccccc3)c2)n1 [erk000068],0.1
6,CCc1cnc(N)nc1-c1c[nH]c(C(=O)NCc2cccc3ccccc23)c1 [erk000070],1.1
7,Clc1ccc(-c2n[nH]c3c2CCCC3)cc1 [erk000071],5.25
8,Cc1onc(-c2ccccc2)c1-c1ccnc(NC2CCC(O)CC2)n1 (centres undefined) [erk000075],1
9,Cc1onc(-c2ccccc2)c1-c1ccn(C(=O)NC(C)C)n1 [erk000088],15.1
10,Cc1cnc(N)nc1-c1c[nH]c(C(=O)NCc2ccccc2)c1 [erk000103],0.832
11,O=C(NCc1ccncc1)c1cc(-c2n[nH]cc2-c2cc(Cl)cc(Cl)c2)c[nH]1 [erk000114],0.079
12,O=C(c1cc(-c2n[nH]cc2-c2cc(Cl)cc(Cl)c2)c[nH]1)N1CCOCC1 [erk000124],0.813
13,Fc1ccc(-c2n[nH]cc2-c2ccnc(NC3CCCCC3)c2)cc1 [erk000125],2.57
14,CCN(C)C(=O)c1cc(-c2[nH]ncc2-c2ccc(F)c(Cl)c2)c[nH]1 [erk000142],0.251
15,O=C(N[C@H](CO)c1ccccc1)c1cc(-c2n[nH]cc2-c2cccc(C(F)(F)F)c2)c[nH]1 [erk000184],0.083
16,CCN(CC)CCOc1ccc(Nc2ncc3cc(-c4c(Cl)cccc4Cl)c(=O)n(C)c3n2)cc1 [erk000225],0.174
17,O=C(NCc1ccc2c(c1)CCO2)c1cc(-c2n[nH]cc2-c2cccc(Cl)c2)c[nH]1 [erk000232],0.021
18,C[S+]([O-])c1ccc(-c2nc(-c3cccc(I)c3)c(-c3ccncc3)[nH]2)cc1 (centres undefined) [erk000253],12.9
19,NCc1ccc(-c2cn[nH]c2-c2c[nH]c(C(=O)NCc3ccc4c(c3)CCO4)c2)cc1C(F)(F)F [erk000282],0.191
20,CC1CCN(c2nc(Nc3cc(C4CC4)n[nH]3)c3ccccc3n2)CC1 [erk000284],0.065
21,Cc1cnc(N)nc1-c1c[nH]c(C(=O)NCc2ccc(F)c(F)c2)c1 [erk000286],0.048

row,SMILES,Ki [µM]
1,Cc1cnc(N)nc1-c1c[nH]c(C(=O)N[C@H](CO)c2ccccc2)c1 [erk000287],1.91
2,Cc1cnc(N)nc1-c1c[nH]c(C(=O)NCc2ccc(Cl)cc2)c1 [erk000302],0.617
3,Cc1cnc(N)nc1-c1c[nH]c(C(=O)NCc2cccc(Cl)c2)c1 [erk000303],0.081
4,Cc1cnc(N)nc1-c1c[nH]c(C(=O)NCc2ccc(F)c(Cl)c2)c1 [erk000304],0.372
5,Cc1cnc(N)nc1-c1c[nH]c(C(=O)N[C@@H](CCO)c2ccccc2)c1 [erk000305],1.55
6,Cc1cnc(N)nc1-c1c[nH]c(C(=O)N[C@H](CCO)c2ccccc2)c1 [erk000306],15.8
7,Cc1cnc(NC2CCCCC2)nc1-c1c[nH]c(C(=O)NCc2ccc(F)c(F)c2)c1 [erk000310],0.071
8,Cc1cnc(N)nc1-c1c[nH]c(C(=O)NCc2ccccc2F)c1 [erk000311],4.79
9,COc1ccccc1CNC(=O)c1cc(-c2nc(N)ncc2C)c[nH]1 [erk000312],2.51
10,Cc1cnc(N)nc1-c1cc(C(=O)NCc2ccc(F)c(Cl)c2)n(Cc2ccccc2)c1 [erk000317],11
11,Cc1cnc(N)nc1-c1cc(C(=O)N[C@H](CO)c2ccccc2)n(Cc2ccccc2)c1 [erk000319],3.98
12,Cc1cnc(N)nc1-c1cc(C(=O)NCc2ccc(F)c(F)c2)n(C)c1 [erk000327],3.47
13,CCN(CC)CCNc1ncc(C)c(-c2c[nH]c(C(=O)NCc3ccc(F)c(F)c3)c2)n1 [erk000364],3.98
14,Cc1cnc(Nc2nc(N3CCCCC3)nc3ccccc23)nc1-c1c[nH]c(C(=O)NCc2ccccc2)c1 [erk000377],2.09
15,CCOC(=O)CNCc1ccc(-c2c[nH]nc2-c2c[nH]c(C(=O)N[C@H](CO)c3ccc(F)c(Cl)c3)c2)cc1Cl [erk000391],0.018
16,CNc1ncc(C)c(-c2c[nH]c(C(=O)NCc3ccc(F)c(Cl)c3)c2)n1 [erk000393],0.282
17,CNc1ncc(C)c(-c2c[nH]c(C(=O)N[C@@H](CO)c3ccc(F)c(Cl)c3)c2)n1 [erk000396],0.068
18,Cc1cnc(Nc2ccccc2)nc1-c1c[nH]c(C(=O)N[C@@H](CO)c2ccc(F)c(Cl)c2)c1 [erk000397],0.004
19,Cc1cnc(Nc2ccccc2)nc1-c1c[nH]c(C(=O)NCc2ccc(F)c(Cl)c2)c1 [erk000398],0.025
20,O=C(N[C@H](CO)c1ccccc1)c1cc(-c2nc(Nc3ccccc3)ncc2C2CC2)c[nH]1 [erk000434],0.417
21,Cc1ccc([C@@H](CO)NC(=O)c2cc(-c3nc(Nc4ccccc4)ncc3C)c[nH]2)cc1F [erk000435],0.002

row,SMILES,Ki [µM]
1,Cc1ccc([C@@H](CO)NC(=O)c2cc(-c3nc(Nc4cccc(F)c4)ncc3C)c[nH]2)cc1F [erk000436],0.006
2,Cc1cnc(Nc2cccc(C(F)(F)F)c2)nc1-c1c[nH]c(C(=O)N[C@H](CO)c2ccccc2)c1 [erk000438],0.002
3,Cc1cnc(NCc2ccccc2)nc1-c1c[nH]c(C(=O)N[C@H](CO)c2ccccc2)c1 [erk000439],0.014
4,Cc1ccc(Nc2ncc(C)c(-c3c[nH]c(C(=O)NCc4cccc(C(F)(F)F)c4)c3)n2)cc1C [erk000440],0.028
5,Cc1ccc(Nc2ncc(C)c(-c3c[nH]c(C(=O)N[C@H](CO)c4ccccc4)c3)n2)cc1C [erk000441],0.002
6,Cc1cnc(Nc2ccc(OCc3ccccc3)cc2)nc1-c1c[nH]c(C(=O)N[C@H](CO)c2ccccc2)c1 [erk000442],0.003
7,Cc1cnc(NCC(F)(F)F)nc1-c1c[nH]c(C(=O)N[C@H](CO)c2ccccc2)c1 [erk000444],0.005
8,Cc1cnc(N[C@H](CO)c2ccccc2)nc1-c1c[nH]c(C(=O)N[C@H](CO)c2ccccc2)c1 [erk000445],0.001
9,COc1ccccc1Nc1ncc(C)c(-c2c[nH]c(C(=O)N[C@H](CO)c3ccccc3)c2)n1 [erk000446],0.068
10,Cc1cnc(Nc2ccc(OC(F)(F)F)cc2)nc1-c1c[nH]c(C(=O)N[C@H](CO)c2ccccc2)c1 [erk000447],0.002
11,Cc1cnc(NCC(C)C)nc1-c1c[nH]c(C(=O)N[C@H](CO)c2ccccc2)c1 [erk000448],0.003
12,Cc1cnc(NCC2CC2)nc1-c1c[nH]c(C(=O)N[C@H](CO)c2ccccc2)c1 [erk000453],0.005
13,CCNc1ncc(C)c(-c2c[nH]c(C(=O)N[C@@H](CCO)c3ccccc3)c2)n1 [erk000459],0.501
14,Cc1cnc(NC2(CO)CC2)nc1-c1c[nH]c(C(=O)N[C@H](CO)c2ccccc2)c1 [erk000460],0.001
15,Cc1cnc(NCCO)nc1-c1c[nH]c(C(=O)N[C@H](CO)c2ccccc2)c1 [erk000461],0.017
16,Cc1cnc(N[C@H](C)CO)nc1-c1c[nH]c(C(=O)N[C@H](CO)c2ccccc2)c1 [erk000462],0.014
17,Cc1cnc(NC[C@@H](C)O)nc1-c1c[nH]c(C(=O)N[C@H](CO)c2ccccc2)c1 [erk000463],0.027
18,Cc1cnc(NC[C@H](C)O)nc1-c1c[nH]c(C(=O)N[C@H](CO)c2ccccc2)c1 [erk000464],0.037
19,Cc1cnc(N[C@H]2CCCC[C@H]2O)nc1-c1c[nH]c(C(=O)N[C@H](CO)c2ccccc2)c1 [erk000465],0.007
20,CCNc1ncc(C)c(-c2c[nH]c(C(=O)N[C@H](C(=O)OC)c3ccccc3)c2)n1 [erk000470],1
21,Cc1cnc(N[C@@H](C)CO)nc1-c1c[nH]c(C(=O)N[C@H](CO)c2ccccc2)c1 [erk000471],0.015
